Test results: patent publication US7803930B2, “Antisense modulation of apolipoprotein B-expression” (Isis Pharmaceuticals, Inc., priority 2002, dated 2010)
In the oligonucleotide strings, read from the 5' end, every base follows the letter of its sugar. An asterisk marks phosphorothioate; unmarked linkages are phosphodiester. Other units and linkages are bracketed, terminal groups are in braces. A string of capitals states the bases alone. e = 2'-O-(2-methoxyethyl) (MOE); [5mC] = 5-methylcytosine; d = 2'-deoxy (DNA)

Each substance was assayed on rabbit apolipoprotein B mRNA (assay: Inhibition of rabbit apolipoprotein B mRNA levels in primary rabbit hepatocytes, real-time PCR). Conditions: not given.
Assay type: cell-based
Design: % INHIB of rabbit apolipoprotein B mRNA levels: concentration or dose not given beside the values
From the text: Primary rabbit hepatocytes were purchased from Invitro Technologies (Gaithersburg, Md.) and maintained in Dulbecco's modified Eagle's medium (Gibco). When purchased, the cells had been seeded into 96-well plates for use in RT-PCR analysis and were confluent.
In accordance with the present invention, a series of oligonucleotides was designed to target different regions of rabbit apolipoprotein B, using published sequences (GenBank accession number X07480.1, incorporated herein as SEQ ID NO: 808, GenBank accession number M17780.1, incorporated herein as SEQ ID NO: 809, and a sequence was derived using previously described primers (Tanaka, Journ. Biol. Chem., 1993,268, 12713-12718) representing an mRNA of the rabbit apolipoprotein B, incorporated herein as SEQ ID NO: 810). “Target site” indicates the first (5′-most) nucleotide number on the particular target sequence to which the oligonucleotide binds. All compounds in Table 21 are chimeric oligonucleotides (“gapmers”) 20 nucleotides in length, composed of a central “gap” region consisting of ten 2′-deoxynucleotides, which is flanked on both sides (5′ and 3′ directions) by five-nucleotide “wings”. The wings are composed of 2′-methoxyethyl (2′-MOE)nucleotides. The internucleoside (backbone) linkages are phosphorothioate (P═S) throughout the oligonucleotide. All cytidine residues are 5-methylcytidines. The compounds were analyzed for their effect on rabbit apolipoprotein B mRNA levels in primary rabbit hepatocytes by quantitative real-time PCR as described in other examples herein. Primary rabbit hepatocytes were treated with 150 nM of the compounds in Table 21. For rabbit apolipoprotein B the PCR primers were: • forward primer: AAGCACCCCCAATGTCACC (SEQ ID NO: 811) • reverse primer: […] (SEQ ID NO: 812) and the PCR probe was: FAM-[…]-TAMRA (SEQ ID NO: 813) where FAM (PE-Applied Biosystems, Foster City, Calif.) is the fluorescent reporter dye) and TAMRA (PE-Applied Biosystems, Foster City, Calif.) is the quencher dye. Data are averages from two experiments. If present, “N.D.” indicates “no data”.
In accordance with the present invention, a subset of the antisense oligonuclotides in Example 42 was further investigated in dose-response studies. Treatment doses were 10, 50, 150 and 300 nM. ISIS 233160 (SEQ ID NO: 824), ISIS 233166 (SEQ ID NO: 830), ISIS 233172 (SEQ ID NO: 835), ISIS 233175 (SEQ ID NO: 838), and ISIS 233183 (SEQ ID NO: 846) were analyzed for their effect on rabbit apolipoprotein B mRNA levels in primary rabbit hepatocytes by quantitative real-time PCR as described in other examples herein.
With “233191 (antisense eG*eA*eA*eA*eT*dG*dG*dA*dA*dT*dT*dG*dT*dA*dG*eT*eT*e[5mC]*eT*e[5mC]) [compound 233191]” the “% INHIB of rabbit apolipoprotein B mRNA levels” value was 31%.

Each substance was assayed on mouse apolipoprotein B mRNA (assay: Inhibition of mouse apolipoprotein B mRNA levels in primary mouse hepatocytes, real-time PCR). Conditions: Table 3, 150 nM, averages from two experiments.
Assay type: cell-based
Experimental: Primary mouse hepatocytes were prepared from CD-1 mice purchased from Charles River Labs (Wilmington, Mass.) and were routinely cultured in Hepatoyte Attachment Media (Gibco) supplemented with 10% Fetal Bovine Serum (Gibco/Life Technologies, Gaithersburg, Md.), 250 nM dexamethasone (Sigma), and 10 nM bovine insulin (Sigma). Cells were seeded into 96-well plates (Falcon-Primaria #3872) at a density of 10000 cells/well for use in RT-PCR analysis.
When cells reached 80% confluency, they were treated with oligonucleotide. For cells grown in 96-well plates, wells were washed once with 200 μL OPTI-MEM™-1 reduced-serum medium (Gibco BRL) and then treated with 130 μL of OPTI-MEM™-1 containing 3.75 μg/mL LIPOFECTIN™ (Gibco BRL) and the desired concentration of oligonucleotide. After 4-7 hours of treatment, the medium was replaced with fresh medium. Cells were harvested 16-24 hours after oligonucleotide treatment.
Quantitation of apolipoprotein B mRNA levels was determined by real-time quantitative PCR using the ABI PRISM™ 7700 Sequence Detection System (PE-Applied Biosystems, Foster City, Calif.) according to manufacturer's instructions. This is a closed-tube, non-gel-based, fluorescence detection system which allows high-throughput quantitation of polymerase chain reaction (PCR) products in real-time. As opposed to standard PCR, in which amplification products are quantitated after the PCR is completed, products in real-time quantitative PCR are quantitated as they accumulate. This is accomplished by including in the PCR reaction an oligonucleotide probe that anneals specifically between the forward and reverse PCR primers, and contains two fluorescent dyes. A reporter dye (e.g., JOE, FAM, or VIC, obtained from either Operon Technologies Inc., Alameda, Calif. or PE-Applied Biosystems, Foster City, Calif.) is attached to the 5′ end of the probe and a quencher dye (e.g., TAMRA, obtained from either Operon Technologies Inc., Alameda, Calif. or PE-Applied Biosystems, Foster City, Calif.) is attached to the 3′ end of the probe. When the probe and dyes are intact, reporter dye emission is quenched by the proximity of the 3′ quencher dye. During amplification, annealing of the probe to the target sequence creates a substrate that can be cleaved by the 5′-exonuclease activity of Taq polymerase. […] With each cycle, additional reporter dye molecules are cleaved from their respective probes, and the fluorescence intensity is monitored at regular intervals by laser optics built into the ABI PRISM™ 7700 Sequence Detection System. In each assay, a series of parallel reactions containing serial dilutions of mRNA from untreated control samples generates a standard curve that is used to quantitate the percent inhibition after antisense oligonucleotide treatment of test samples.
Probes and primers to mouse apolipoprotein B were designed to hybridize to a mouse apolipoprotein B sequence, using published sequence information (GenBank accession number M35186, incorporated herein as SEQ ID NO: 10). For mouse apolipoprotein B the PCR primers were: forward primer: CGTGGGCTCCAGCATTCTA (SEQ ID NO: 11) reverse primer: […] (SEQ ID NO: 12) and the PCR probe was: FAM-[…]-TAMRA SEQ ID NO: 13) where FAM (PE-Applied Biosystems, Foster City, Calif.) is the fluorescent reporter dye) and TAMRA (PE-Applied Biosystems, Foster City, Calif.) is the quencher dye. For mouse GAPDH the PCR primers were: forward primer: […] (SEQ ID NO: 14) reverse primer: […] (SEQ ID NO:15) and the PCR probe was: 5′ JOE-[…]-TAMRA 3′ (SEQ ID NO: 16) where JOE (PE-Applied Biosystems, Foster City, Calif.) is the fluorescent reporter dye) and TAMRA (PE-Applied Biosystems, Foster City, Calif.) is the quencher dye.
In accordance with the present invention, a series of oligonucleotides was designed to target different regions of the mouse apolipoprotein B RNA, using published sequence (GenBank accession number M35186, incorporated herein as SEQ ID NO: 10). […]
“147475 (eA*eT*eT*eG*eT*dA*dT*dG*dT*dG*dA*dG*dA*dG*dG*eT*eG*eA*eG*eG; antisense) [compound 147475]” was tested, and the “% INHIB” value was 79%.
For “147476 (eG*eA*eG*eG*eA*dG*dA*dT*dT*dG*dG*dA*dT*d[5mC]*dT*eT*eA*eA*eG*eG; antisense) [compound 147476]”, the “% INHIB” value was 13%.
In the case of “147478 (eT*e[5mC]*e[5mC]*eA*eG*dG*dA*dA*dT*dT*dG*dA*dG*d[5mC]*dT*eT*eG*eT*eG*e[5mC]; antisense) [compound 147478]”, the “% INHIB” value is reported as 78%.
In the case of “147480 (eT*e[5mC]*eT*e[5mC]*eA*d[5mC]*d[5mC]*d[5mC]*dT*d[5mC]*dA*dT*dG*d[5mC]*dT*e[5mC]*e[5mC]*eA*eT*eT; antisense) [compound 147480]”, the “% INHIB” value is reported as 54%.
“147481 (eT*eG*eA*e[5mC]*eT*dG*dT*d[5mC]*dA*dA*dG*dG*dG*dT*dG*eA*eG*e[5mC]*eT*eG; antisense) [compound 147481]” was tested, and the “% INHIB” value was 24%.
For “147482 (eG*eT*e[5mC]*e[5mC]*eA*dG*d[5mC]*d[5mC]*dT*dA*dG*dG*dA*dA*d[5mC]*eA*e[5mC]*eT*e[5mC]*eA; antisense) [compound 147482]”, the “% INHIB” value was 59%.
In the case of “147484 (eT*eT*e[5mC]*eA*eT*d[5mC]*d[5mC]*dG*dA*dG*dA*dA*dG*dT*dT*eG*eG*eG*eA*e[5mC]; antisense) [compound 147484]”, the “% INHIB” value is reported as 49%.
In the case of “147485 (eA*eT*eT*eT*eG*dG*dG*dA*d[5mC]*dG*dA*dA*dT*dG*dT*eA*eT*eG*e[5mC]*e[5mC]; antisense) [compound 147485]”, the “% INHIB” value is reported as 64%.
“147487 (eT*eT*e[5mC]*e[5mC]*e[5mC]*dA*dG*dT*d[5mC]*dA*dG*d[5mC]*dT*dT*dT*eA*eG*eT*eG*eG; antisense) [compound 147487]” was tested, and the “% INHIB” value was 73%.
In the case of “147488 (eA*eG*e[5mC]*eT*eT*dG*d[5mC]*dT*dT*dG*dT*dT*dG*dG*dG*e[5mC]*eA*e[5mC]*eG*eG; antisense) [compound 147488]”, the “% INHIB” value is reported as 72%.
“147489 (e[5mC]*e[5mC]*eT*eA*eT*dA*d[5mC]*dT*dG*dG*d[5mC]*dT*dT*d[5mC]*dT*eA*eT*eG*eT*eT; antisense) [compound 147489]” was tested, and the “% INHIB” value was 5%.
“147491 (eG*eA*eG*eA*eA*dA*dT*d[5mC]*d[5mC]*dT*dT*d[5mC]*dA*dG*dT*eA*eA*eG*eG*eG; antisense) [compound 147491]” was tested, and the “% INHIB” value was 71%.
In the case of “147492 (e[5mC]*eA*eA*eT*eG*dG*dA*dA*dT*dG*d[5mC]*dT*dT*dG*dT*e[5mC]*eA*e[5mC]*eT*eG; antisense) [compound 147492]”, the “% INHIB” value is reported as 68%.
In the case of “147493 (eG*e[5mC]*eT*eT*e[5mC]*dA*dT*dT*dA*dT*dA*dG*dG*dA*dG*eG*eT*eG*eG*eT; antisense) [compound 147493]”, the “% INHIB” value is reported as 41%.
“147494 (eA*e[5mC]*eA*eA*e[5mC]*dT*dG*dG*dG*dA*dT*dA*dG*dT*dG*eT*eA*eG*e[5mC]*e[5mC]; antisense) [compound 147494]” was tested, and the “% INHIB” value was 84%.
In the case of “147495 (eG*eT*eT*eA*eG*dG*dA*d[5mC]*d[5mC]*dA*dG*dG*dG*dA*dT*eT*eG*eT*eG*eA; antisense) [compound 147495]”, the “% INHIB” value is reported as 0%.
With “147496 (eA*e[5mC]*e[5mC]*eA*eT*dG*dG*dA*dA*dA*dA*d[5mC]*dT*dG*dG*e[5mC]*eA*eA*e[5mC]*eT; antisense) [compound 147496]” the “% INHIB” value was 19%.
With “147498 (eT*eG*eG*eG*e[5mC]*dA*dA*d[5mC]*dG*dA*dT*dA*dT*d[5mC]*dT*eG*eA*eT*eT*eG; antisense) [compound 147498]” the “% INHIB” value was 0%.
For “147499 (e[5mC]*eT*eG*e[5mC]*eA*dG*dG*dG*d[5mC]*dG*dT*d[5mC]*dA*dG*dT*eG*eA*e[5mC]*eA*eA; antisense) [compound 147499]”, the “% INHIB” value was 29%.
